Experimental findings from patent US10717720B2, “Modified compound of andrographolide” (Heilongjiang Zhenbaodao Pharmaceutical Co., Ltd., priority 2015, dated 2020) are described below.

Where only a bound is given, the exact number is not on record here.

For one test, the system named is LPS-induced IL-6 release level from THP-1 cells. Put plainly: Test of IL-6 release from THP-1 cells (LPS-induced, IL-6 in supernatant detected by CBA). It is filed as cell-based. Conditions: Homo sapiens, THP-1, 24 h, read-out: Inhibition rate @ 10 uM. The protocol:
Test of IL-6 Release from THP-1 Cells
The inhibitory effect of the compound on LPS-induced IL-6 release level from THP-1 cells was evaluated by measuring the level of IL-6 in the cell culture supernatant.
4 ul was taken from each above solution and added to lml of culture solution to make 120 uM, 40 uM, 12 uM, 4 uM. 50 ul per well was taken and added to wells with cells to give final concentrations of 30 uM, 10 uM, 3 uM, and 1 uM, respectively. Dexamethasone was added as a positive drug into an individual cell well with a final concentration of 100 nM. • c) Cell stimulation
The LPS 1 mg/ml solution was diluted to 800 ng/ml with the culture solution and added to the cell culture wells at 50 ul/well. • d) Cell incubation and detection
The cell culture plate was placed in a 37° C. incubator, and the supernatant was collected after culturing for 24 hours. The level of IL-6 in the supernatant was detected by CBA.
In general, inhibition refers to the relative decrease from the control value, in per cent. On to `C=C1CCC2[C@]3(C)CO[C@@H](C4CCCC4)O[C@@H]3CC[C@@]2(C)[C@@H]1CCOc1ccncn1` (stereo partly drawn) [Compound 312, 4-(2-((3R,4aR,6aS,7R,10bR)-3-cyclopentyl-6a,10b-dimethyl-8-dihydromethylenedecahydro-1H-naphtho[2,1-d][1,3]dioxin-7-yl)ethoxy)pyrimidine], for which the inhibition at 10 µM is less than 30%.

As for `C=C1CCC2[C@]3(C)CO[C@@H](C4CCCC4)O[C@@H]3CC[C@@]2(C)[C@@H]1CCOC1CN(C(C)C)C1` (stereo partly drawn) [Compound 313, 3-(2-((3R,4aR,6aS,7R,10bR)-3-cyclopentyl-6a,10b-dimethyl-8-dihydromethylenedecahydro-1H-naphtho[2,1-d][1,3]dioxin-7-yl)ethoxy)-1-isopropyl azetidine], the inhibition at 10 µM is 30 to 60%.

Still in this test, the particulars now being: Homo sapiens; inflammatory factor IL-6 detected by CBA; compound 10 uM; LPS-stimulated THP-1 cells, supernatant after 24 hours; read-out: Inhibition rate @ 10 uM.
Turning to `C=C1CCC2[C@]3(C)CO[C@@H](C4CCCC4)O[C@@H]3CC[C@@]2(C)[C@@H]1CCN1CCC(CO)CC1` (stereo partly drawn) [Compound 002, (1-(2-((3R,4aR,6aS,7R,10bR)-3-cyclopentyl-6a,10b-dimethyl-8-methylene-decahydro-1H-naphtho[2,1-d][1,3]dioxin-7-yl)ethyl)piperidin-4-yl)methanol], the inhibition at 10 µM was less than 30%.

Consider `C=C1CCC2[C@]3(C)CO[C@@H](C4CCCC4)O[C@@H]3CC[C@@]2(C)[C@@H]1CCN1CCC(OC)C1` (some centres unmarked) [Compound 116], for which the inhibition at 10 µM was in the range of 30 to 60%.

On to `C=C1CCC2[C@]3(C)CO[C@@H](C4CCCC4)O[C@@H]3CC[C@@]2(C)[C@@H]1CCN1CCOCC1` (stereo partly drawn) [Compound 123, 4-(2-((3R,4aR,6aS,7R,10bR)-3-cyclopentyl-6a,10b-dimethyl-8-methylenedecahydro-1H-naphtho[2,1-d][1,3]dioxin-7-yl)ethyl)morpholine], for which the inhibition at 10 µM is less than 30%.

In the case of `C=C1CCC2[C@]3(C)CO[C@@H](c4ccc(F)c(F)c4)O[C@@H]3CC[C@@]2(C)[C@@H]1CCN1CCC(CO)CC1` (stereo partly drawn) [Compound 130, (1-(2-((3R,4aR,6aS,7R,10bR)-3-(3,4-difluorophenyl)-6a,10b-dimethyl-8-methylenedecahydro-1H-naphtho[2,1-d][1,3]dioxin-7-yl)ethyl)piperidin-4-yl)methanol], the inhibition at 10 µM is less than 30%.

`C=C1CCC2[C@]3(C)CO[C@@H](C4CCCC4)O[C@@H]3CC[C@@]2(C)[C@@H]1CCN1CCC[C@H]1C(=O)OC` (some centres unmarked) [Compound 147]: the inhibition at 10 µM was less than 30%.

Take `C=C1CCC2[C@]3(C)CO[C@@H](C4CCCC4)O[C@@H]3CC[C@@]2(C)[C@@H]1CCN1CC[C@H](NC(C)=O)C1` (stereo partly drawn) [Compound 149, N-((3 S)-1-(2-((3R,4aR,6aS,7R,10bR)-3-cyclopentyl-6a,10b-dimethyl-8-methylenedecahydro-1H-naphtho[2,1-d][1,3]dioxain-7-yl)ethyl)pyrrolidin-3-yl)acetamide]: the inhibition at 10 µM is 30 to 60%.

For `C=C1CCC2[C@]3(C)CO[C@@H](C4CCCC4)O[C@@H]3CC[C@@]2(C)[C@@H]1CCN1CCC(N(CC)CC)CC1` (stereo partly drawn) [Compound 150, 1-(2-((4aR,6aS,7R,10bR)-3-cyclopentyl-6a,10b-dimethyl-8-methylene-decahydro-1H-naphtho[2,1-d][1,3]dioxin-7-yl)ethyl)-N,N-diethylpiperidin-4-amine], the inhibition at 10 µM lay in the range of 30 to 60%.

With `C=C1CCC2[C@]3(C)CO[C@@H](C4CCCC4)O[C@@H]3CC[C@@]2(C)[C@@H]1CCN1CCC(N2CCCC2)CC1` (stereo partly drawn) [Compound 160, 1-(2-((3R,4aR,6aS,7R,10bR)-3-cyclopentyl-6a,10b-dimethyl-8-methylene-decahydro-1H-naphtho[2,1-d][1,3]dioxin-7-yl)ethyl)-4-(pyrrolidin-1-yl)piperidine], the inhibition at 10 µM is greater than 60%.

Regarding `C=C1CCC2[C@]3(C)CO[C@@H](C4CCCC4)O[C@@H]3CC[C@@]2(C)[C@@H]1CCN1CCCC1C(=O)O` (stereo partly drawn) [Compound 163, 1-(2-((3R,4aR,6aS,7R,10bR)-3-cyclopentyl-6a,10b-dimethyl-8-methylenedecahydro-1H-naphtho[2,1-d][1,3]dioxin-7-yl)ethyl)pyrrolidine-2-carboxylic acid], the inhibition at 10 µM was greater than 60%.

For `C=C1CCC2[C@]3(C)CO[C@@H](C4CCCC4)O[C@@H]3CC[C@@]2(C)[C@@H]1CCN1CCC2(CCN(C)CC2)C1` (some centres unmarked) [Compound 181], the inhibition at 10 µM is less than 30%.

As to `C=C1CCC2[C@]3(C)CO[C@@H](C4CCCC4)O[C@@H]3CC[C@@]2(C)[C@@H]1CCN(CCO)CCO` (stereo partly drawn) [Compound 191, 3-((2-((3R,4aR,6aS,7R,10bR)-3-cyclopentyl-6a,10b-dimethyl-8-methylene-decahydro-1H-naphtho[2,1-d][1,3]dioxin-7-yl)ethyl)amino)N,N-diethanolamine], the inhibition at 10 µM was less than 30%.

As to `C=C1CCC2[C@]3(C)CO[C@@H](C4CCCC4)O[C@@H]3CC[C@@]2(C)[C@@H]1CCN1CCOC1=O` (stereo partly drawn) [Compound 196, 3-(2-((3R,4aR,6aS,7R,10bR)-3-cyclopentyl-6a,10b-dimethyl-8-decahydromethylene-1H-naphtho[2,1-d][1,3]dioxin-7-yl)ethyl)oxazolidin-2-one], the inhibition at 10 µM lay in the range of 30 to 60%.

As for `C=C1CCC2[C@]3(C)CO[C@@H](C4CCCC4)O[C@@H]3CC[C@@]2(C)[C@@H]1CCNc1cnoc1` (stereo partly drawn) [Compound 207, N-(2-((3R,4aR,6aS,7R,10bR)-3-cyclopentyl-6a,10b-dimethyl-8-decahydromethylene-1H-naphtho[2,1-d][1,3]dioxin-7-yl)ethyl)isoxazol-4-amine], the inhibition at 10 µM was 30 to 60%.

For the compound `C=C1CCC2[C@]3(C)CO[C@@H](c4ccc(F)c(F)c4)O[C@@H]3CC[C@@]2(C)[C@@H]1CCN1CCN(C)C1=O` (stereo partly drawn) [Compound 212, 3-(2-((3R,4aR,6aS,7R,10bR)-3-(3,4-difluorophenyl)-6a,10b-dimethyl-8-decahydromethylene-1H-naphtho[2,1-d][1,3]dioxin-7-yl)ethyl)-1-methyltetrahydroimidazol-2-one], the inhibition at 10 µM is greater than 60%.

In the case of `C=C1CCC2[C@]3(C)CO[C@@H](c4ccc(F)c(F)c4)O[C@@H]3CC[C@@]2(C)[C@@H]1CCN1C(=O)CCC1=O` (stereo partly drawn) [Compound 214, 1-(2-((3R,4aR,6aS,7R,10bR)-3-(3,4-difluorophenyl)-6a, 10b-dimethyl-8-methylenedecahydro-1H-naphtho[2,1-d][1,3]dioxin-7-yl)ethyl)pyrrolidine-2,5-dione], the inhibition at 10 µM is greater than 60%.

`C=C1CCC2[C@]3(C)CO[C@@H](c4ccc(F)c(F)c4)O[C@@H]3CC[C@@]2(C)[C@@H]1CCN1C(=O)COC1=O` (stereo partly drawn) [Compound 215, 3-(2-((3R,4aR,6aS,7R,10bR)-3-(3,4-difluorophenyl)-6a, 10b-dimethyl-8-methylenedecahydro-1H-naphtho[2,1-d][1,3]dioxin-7-yl)ethyl)oxazolidine-2,4-dione]: the inhibition at 10 µM is less than 30%.

Consider `C=C1CCC2[C@]3(C)CO[C@@H](c4ccc(F)c(F)c4)O[C@@H]3CC[C@@]2(C)[C@@H]1CCN1C(=O)CNC1=O` (stereo partly drawn) [Compound 230, 3-(2-((3R,4aR,6aS,7R,10bR)-3-(3,4-difluorophenyl)-6a,10b-dimethyl-8-methylenedecahydro-1H-naphtho[2,1-d][1,3]dioxin-7-yl)ethyl)tetrahydroimidazole-2,4-dione], for which the inhibition at 10 µM was greater than 60%.

Regarding `C=C1CCC2[C@]3(C)CO[C@@H](C4CCCC4)O[C@@H]3CC[C@@]2(C)[C@@H]1CCN1CCC(C(=O)O)CC1` (stereo partly drawn) [Compound 256, 1-(2-((3R,4aR,6aS,7R,10bR)-3-cyclopentyl-6a,10b-dimethyl-8-methylene-decahydro-1H-naphtho[2,1-d][1,3]dioxin-7-yl)ethyl)piperidin-4-carboxylic acid], the inhibition at 10 µM was less than 30%.

Take `C=C1CCC2[C@](C)(CO)[C@H](O)CC[C@@]2(C)[C@@H]1CCN1CCC(CO)CC1` (some centres unmarked) [Compound 265]: the inhibition at 10 µM is less than 30%.

With `C=C1CCC2[C@]3(C)CO[C@@H](C4CCCC4)O[C@@H]3CC[C@@]2(C)[C@@H]1CCOCCCN(C)C` (stereo partly drawn) [Compound 281, 3-(2-((3R,4aR,6aS,7R,10bR)-3-cyclopentyl-6a,10b-dimethyl-8-dihydromethylenedecahydro-1H-naphtho[2,1-d][1,3]dioxin-7-yl)ethoxy)-N,N-dimethylpropan-1-amine], the inhibition at 10 µM lay in the range of 30 to 60%.

Take `C=C1CCC2[C@]3(C)CO[C@@H](C4CCCC4)O[C@@H]3CC[C@@]2(C)[C@@H]1CCN(CCO)CCCN(C)C` (stereo partly drawn) [Compound 284, 2-((2-((3R,4aR,6aS,7R,10bR)-3-cyclopentyl-6a, 10b-dimethyl-8-methylene-decahydro-1H-naphtho[2,1-d][1,3]dioxin-7-yl)ethyl)(3-(dimethylamino)propyl)amino)ethanol]: the inhibition at 10 µM fell in the range of 30 to 60%.

In the case of `C=C1CCC2[C@]3(C)CO[C@@H](C4CCCC4)O[C@@H]3CC[C@@]2(C)[C@@H]1CCOc1cnn(C)c1` (stereo partly drawn) [Compound 289, 4-(2-((3R,4aR,6aS,7R,10bR)-3-cyclopentyl-6a,10b-dimethyl-8-dihydromethylenedecahydro-1H-naphtho[2,1-d][1,3]dioxin-7-yl)ethoxy)-2-methyl-1H-pyrazole], the inhibition at 10 µM is greater than 60%.

Turning to `C=C1CCC2[C@]3(C)CO[C@@H](C4CCCC4)O[C@@H]3CC[C@@]2(C)[C@@H]1CCOc1ccncc1` (stereo partly drawn) [Compound 297, 4-(2-((3R,4aR,6aS,7R,10bR)-3-cyclopentyl-6a,10b-dimethyl-8-dihydromethylenedecahydro-1H-naphtho[2,1-d][1,3]dioxin-7-yl)ethoxy)pyridine], the inhibition at 10 µM is greater than 60%.

As to `C=C1CCC2[C@]3(C)CO[C@@H](C4CCCC4)O[C@@H]3CC[C@@]2(C)[C@@H]1CCOc1cccnc1` (stereo partly drawn) [Compound 310, 3-(2-((3R,4aR,6aS,7R,10bR)-3-cyclopentyl-6a,10b-dimethyl-8-dihydromethylenedecahydro-1H-naphtho[2,1-d][1,3]dioxin-7-yl)ethoxy)-pyridine], the inhibition at 10 µM was greater than 60%.
